Experimental data published in ChEMBL document CHEMBL2331445, “Chemical, biochemical and microbiological properties of a brominated nitrovinylfuran with broad-spectrum antibacterial activity” (Bioorg Med Chem, 2013).
Converted amounts (≈) assume the structure as drawn. The source made the active and inactive calls. No cut-off for these calls is given here.

Experiments:
[1] = Cytotoxicity against human SW707 cells after 72 hrs by crystal violet staining method; type: ADME, cell-based; details: SW707, 72 h
[2] = tested on: CAPAN-1; assay: Cytotoxicity against human Capan1 cells after 72 hrs by crystal violet staining method; type: ADME, cell-based; details: CAPAN-1, 72 h
[3] = tested on: Ca-Ski; assay: Cytotoxicity against human CaSki cells after 72 hrs by crystal violet staining method; type: ADME, cell-based
[4] = tested on: Calu-6; assay: Cytotoxicity against human Calu6 cells after 72 hrs by crystal violet staining method; type: ADME, cell-based; details: Calu-6, 72 h
[5] = tested on: MeWo; assay: Cytotoxicity against human MeWo cells after 72 hrs by crystal violet staining method; type: ADME, cell-based
[6] = tested on: A-431; assay: Cytotoxicity against human A431 cells after 72 hrs by crystal violet staining method; type: ADME, cell-based; details: A-431, 72 h
[7] = Cytotoxicity against human Flow 2002 cells after 72 hrs by crystal violet staining method; type: ADME, cell-based; details: Flow 2002, 72 h
[8] = tested on: HaCaT; assay: Cytotoxicity against human HaCaT cells after 72 hrs by crystal violet staining method; type: ADME, cell-based
[9] = tested on: Staphylococcus aureus; assay: microbe, parasite or virus in culture; type: functional; details: NCTC 10442
Description: Antibacterial activity against methicillin-resistant Staphylococcus aureus NCTC 10442 after 20 to 24 hrs by broth microdilution assay

[10] = tested on: Staphylococcus aureus; assay: microbe, parasite or virus in culture; type: functional; details: ATCC 25923
Description: Antibacterial activity against methicillin-sensitive Staphylococcus aureus ATCC 25923 after 20 to 24 hrs by broth microdilution assay

[11] = Inhibition of Staphylococcus aureus MurA2 expressed in Escherichia coli BL21(lambdaDE3) using UNAG and PEP as substrate incubated for 10 mins prior to PEP addition measured after 60 mins by spectrophotometric analysis
[12] = Inhibition of Pseudomonas aeruginosa MurA expressed in Escherichia coli BL21(lambdaDE3) using UNAG and PEP as substrate incubated for 10 mins prior to PEP addition measured after 60 mins by spectrophotometric analysis
[13] = target: UDP-N-acetylglucosamine 1-carboxyvinyltransferase (Escherichia coli K-12, UniProt P0A749, C115D); assay: Inhibition of Escherichia coli MurA C115D mutant expressed in Escherichia coli BL21(lambdaDE3) using UNAG and PEP as substrate incubated for 10 mins prior to PEP addition measured after 60 mins by spectrophotometric analysis
[14] = target: UDP-N-acetylglucosamine 1-carboxyvinyltransferase (Escherichia coli K-12, UniProt P0A749); assay: Inhibition of Escherichia coli MurA expressed in Escherichia coli BL21(lambdaDE3) using UNAG and PEP as substrate incubated for 10 mins prior to PEP addition measured after 60 mins by spectrophotometric analysis
[15] = tested on: Pseudomonas aeruginosa; assay: microbe, parasite or virus in culture; type: functional; details: ATCC 27853
Description: Antibacterial activity against Pseudomonas aeruginosa ATCC 27853 after 20 to 24 hrs by broth microdilution assay

[16] = tested on: Escherichia coli; assay: microbe, parasite or virus in culture; type: functional; details: ATCC 25922
Description: Antibacterial activity against Escherichia coli ATCC 25922 after 20 to 24 hrs by broth microdilution assay

[17] = tested on: Dengue virus; details: at 50 µM
Description: Inhibition of Dengue virus NS2B-NS3 protease expressed in Escherichia coli BL21(lambdaDE3) using Abz-NleKRRS-3-(NO2)Y as substrate at 50 uM incubated for 15 mins prior to substrate addition measured for 15 mins by fluorometric analysis

[18] = target: Prothrombin (Homo sapiens) (UniProt P00734); details: at 25 µM
Description: Inhibition of thrombin (unknown origin) expressed in Escherichia coli BL21(lambdaDE3) using Boc-Val-Pro-Arg-AMC as substrate at 25 uM incubated for 15 mins prior to substrate addition measured for 10 mins by fluorometric analysis

[19] = target: Methionine aminopeptidase 2 (Homo sapiens) (UniProt P50579); details: at 10 µM
Description: Inhibition of human MetAP2 expressed in Escherichia coli BL21(lambdaDE3) using Met-AMC as substrate at 10 uM incubated for 30 mins prior to substrate addition measured for 15 mins fluorometric analysis

[20] = target: Methionine aminopeptidase 1 (Homo sapiens) (UniProt P53582); details: at 10 µM
Description: Inhibition of human MetAP1 expressed in Escherichia coli BL21(lambdaDE3) using Met-AMC as substrate at 10 uM incubated for 30 mins prior to substrate addition measured for 15 mins fluorometric analysis

[21] = tested on: Escherichia coli; details: at 10 µM
Description: Inhibition of Escherichia coli MetAP expressed in Escherichia coli BL21(lambdaDE3) using Met-AMC as substrate at 10 uM incubated for 30 mins prior to substrate addition measured for 15 mins fluorometric analysis

[22] = Induction of GSSG formation in citrate buffer at 100 uM by RP-LC/MS analysis
[23] = Induction of GSH-adduct formation in citrate buffer at100 uM by RP-LC/MS analysis; details: 100 µM

UDP-N-acetylglucosamine 1-carboxyvinyltransferase (Escherichia coli K-12, UniProt P0A749), sequence (P0A749 whole entry): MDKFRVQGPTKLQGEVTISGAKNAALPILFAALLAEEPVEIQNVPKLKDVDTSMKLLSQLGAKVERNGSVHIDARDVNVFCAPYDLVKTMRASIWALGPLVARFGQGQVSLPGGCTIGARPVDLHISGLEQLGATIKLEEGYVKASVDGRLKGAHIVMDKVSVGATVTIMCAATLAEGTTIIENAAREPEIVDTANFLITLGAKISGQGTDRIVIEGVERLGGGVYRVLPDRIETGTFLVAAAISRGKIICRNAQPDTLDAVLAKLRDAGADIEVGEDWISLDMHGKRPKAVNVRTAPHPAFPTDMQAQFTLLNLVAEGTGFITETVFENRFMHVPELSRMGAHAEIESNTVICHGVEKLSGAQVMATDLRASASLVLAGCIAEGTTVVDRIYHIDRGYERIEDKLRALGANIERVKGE
UDP-N-acetylglucosamine 1-carboxyvinyltransferase (Escherichia coli K-12, UniProt P0A749, C115D), sequence (P0A749 whole entry C115D): as the sequence (P0A749 whole entry) above, with C115D counted along it
Methionine aminopeptidase 2 (Homo sapiens), sequence (P50579 2-478 limits assumed): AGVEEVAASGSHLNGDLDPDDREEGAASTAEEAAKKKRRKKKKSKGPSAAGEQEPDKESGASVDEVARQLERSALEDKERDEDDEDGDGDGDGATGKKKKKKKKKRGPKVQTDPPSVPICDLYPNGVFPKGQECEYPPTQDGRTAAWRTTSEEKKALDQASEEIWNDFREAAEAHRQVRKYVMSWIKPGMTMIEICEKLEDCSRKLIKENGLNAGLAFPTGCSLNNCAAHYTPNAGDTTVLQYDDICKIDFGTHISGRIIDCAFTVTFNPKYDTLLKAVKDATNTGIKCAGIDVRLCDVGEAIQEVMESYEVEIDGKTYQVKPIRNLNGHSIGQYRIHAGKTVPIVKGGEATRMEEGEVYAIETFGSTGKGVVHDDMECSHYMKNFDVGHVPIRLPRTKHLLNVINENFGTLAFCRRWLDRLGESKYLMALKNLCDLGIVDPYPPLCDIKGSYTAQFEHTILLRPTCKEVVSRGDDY

Compound	IC50 [1] [µM]	IC50 [2] [µM]	IC50 [3] [µM]	IC50 [4] [µM]	IC50 [5] [µM]	IC50 [6] [µM]	IC50 [7] [µM]	IC50 [8] [µM]	MIC [9] [µg/mL]	MIC [10] [µg/mL]	IC50 [11]	IC50 [12]	IC50 [13]	MIC [15] [µg/mL]	MIC [16] [µg/mL]	inhibition [17]	inhibition [18]	inhibition [19]	inhibition [20]	inhibition [21]	other results
C[N+](=O)[O-] [NITROMETHANE]	≥ 100	≥ 100	≥ 100	≥ 100	≥ 100	≥ 100	≥ 100	≥ 100	> 32	8 (≈ 131 µM)	Not Active	Not Active	Not Active	8 (≈ 131 µM)	32 (≈ 524 µM)	inactive	inactive	inactive	inactive	inactive	IC50 [14]: Not Active
O=[N+]([O-])CBr [BROMO(NITRO)METHANE]	73	69	99	23	40	38	14	25	2 (≈ 14.3 µM)	2 (≈ 14.3 µM)				0.5 (≈ 3.57 µM)	1 (≈ 7.15 µM)	inactive	inactive	22%	inactive	85%	IC50 ([11]; read-out: IC50): 6.2 µM; IC50 ([12]; read-out: IC50): 4 µM; IC50 ([13]; read-out: IC50): 7.8 µM; IC50 ([14]; read-out: IC50): 4.6 µM; Activity [22]: Not Active; Activity [23]: Active
C=C1C(=O)O[C@@H]2/C=C(\CO)CC/C=C(\C)C[C@H](OC(=O)C(=C)[C@H](O)CO)[C@@H]12 [CNICIN]	≥ 100	93	≥ 100	44	≥ 100	27	82	80	> 32	> 32			Not Active	> 32	> 32	inactive	inactive	9%	inactive	inactive	IC50 ([11]; read-out: IC50): 20.4 µM; IC50 ([12]; read-out: IC50): 10.3 µM
O=Cc1ccc(Br)o1	≥ 100	≥ 100	≥ 100	≥ 100	≥ 100	≥ 100	≥ 100	≥ 100	> 32	> 32	Not Active	Not Active	Not Active	> 32	> 32	inactive	inactive	inactive	inactive	inactive	IC50 [14]: Not Active; Activity [22]: Active; Activity [23]: Active
